Experimental data from ChEMBL document CHEMBL1287680, “C-11 diamino cryptolepine derivatives NSC748392, NSC748393, and NSC748394: anticancer profile and G-quadruplex stabilization” (Bioorg Med Chem Lett, 2010).

Columns and labels:
Conditions in all cases: Homo sapiens
Nucleic Acid = system: Nucleic Acid
Description: Binding affinity to human duplex DNA assessed as change in melting temperature by FRET-melting assay

OVCAR-8 = assay: cells
Description: Anticancer activity against human OVCAR8 cells

OVCAR-5 = assay: cells
Description: Anticancer activity against human OVCAR5 cells

IGROV-1 = assay: cells
Description: Anticancer activity against human IGROV1 cells

SK-MEL-28 = assay: cells
Description: Anticancer activity against human SK-MEL-28 cells

LOX IMVI = assay: cells
Description: Anticancer activity against human LOXIMVI cells

U-251 = assay: cells
Description: Anticancer activity against human U251 cells

SNB-75 = assay: cells
Description: Anticancer activity against human SNB75 cells

SF-295 = assay: cells
Description: Anticancer activity against human SF295 cells

SF-268 = assay: cells
Description: Anticancer activity against human SF268 cells

HT-29 = assay: cells
Description: Anticancer activity against human HT-29 cells

HCT-15 = assay: cells
Description: Anticancer activity against human HCT15 cells

HCT-116 = assay: cells
Description: Anticancer activity against human HCT116 cells

HCC 2998 = assay: cells
Description: Anticancer activity against human HCC2998 cells

NCI-H460 = assay: cells
Description: Anticancer activity against human NCI-H460 cells

NCI-H23 = assay: cells
Description: Anticancer activity against human NCI-H23 cells

NCI-H226 = assay: cells
Description: Anticancer activity against human NCI-H226 cells

HOP-92 = assay: cells
Description: Anticancer activity against human HOP92 cells

HOP-62 = assay: cells
Description: Anticancer activity against human HOP62 cells

A549 = assay: cells
Description: Anticancer activity against human A549 cells

cells = assay: cells
Description: Anticancer activity against human RPMI8266 cells

K562 = assay: cells
Description: Anticancer activity against human K562 cells

T47D = assay: cells
Description: Anticancer activity against human T47D cells

MDA-MB-435 = assay: cells
Description: Anticancer activity against human MDA-MB-435 cells

MDA-MB-231 = assay: cells
Description: Anticancer activity against human MDA-MB-231 cells

NCI/ADR-RES = assay: cells
Description: Anticancer activity against human NCI/ADR-RES cells

MCF7 = assay: cells
Description: Anticancer activity against human MCF7 cells

UO-31 = assay: cells
Description: Anticancer activity against human UO31 cells

A498 = assay: cells
Description: Anticancer activity against human A498 cells

CCN(CC)CCCCNc1c2ccccc2[n+](C)c2c1[nH]c1ccccc12.[Cl-]
ΔTm (Nucleic Acid): 13.1 °C
GI50 (OVCAR-8; OVCAR-8, read-out: pGI50 (converted)): 0.617 µM
CC50 (OVCAR-8; OVCAR-8, read-out: pLC50 (converted)): > 100 µM
TGI (OVCAR-8; OVCAR-8, read-out: pTGI): 10.2 µM
GI50 (OVCAR-5; OVCAR-5, read-out: pGI50 (converted)): 0.851 µM
CC50 (OVCAR-5; OVCAR-5, read-out: pLC50 (converted)): > 100 µM
TGI (OVCAR-5; OVCAR-5, read-out: pTGI): 4.17 µM
GI50 (IGROV-1; IGROV-1, read-out: pGI50 (converted)): 0.468 µM
CC50 (IGROV-1; IGROV-1, read-out: pLC50 (converted)): > 100 µM
TGI (IGROV-1; IGROV-1, read-out: pTGI): 7.41 µM
GI50 (SK-MEL-28; SK-MEL-28, read-out: pGI50 (converted)): 0.186 µM
CC50 (SK-MEL-28; SK-MEL-28, read-out: pLC50 (converted)): 1.74 µM
TGI (SK-MEL-28; SK-MEL-28, read-out: pTGI): 0.49 µM
GI50 (LOX IMVI; read-out: pGI50 (converted)): 0.331 µM
CC50 (LOX IMVI; read-out: pLC50 (converted)): 7.41 µM
TGI (LOX IMVI; read-out: pTGI): 1.41 µM
GI50 (U-251; U-251, read-out: pGI50 (converted)): 0.229 µM
CC50 (U-251; U-251, read-out: pLC50 (converted)): 24.5 µM
TGI (U-251; U-251, read-out: pTGI): 1.35 µM
GI50 (SNB-75; SNB-75, read-out: pGI50 (converted)): 0.347 µM
CC50 (SNB-75; SNB-75, read-out: pLC50 (converted)): 3.8 µM
TGI (SNB-75; SNB-75, read-out: pTGI): 1.29 µM
GI50 (SF-295; SF-295, read-out: pGI50 (converted)): 0.603 µM
CC50 (SF-295; SF-295, read-out: pLC50 (converted)): > 100 µM
TGI (SF-295; SF-295, read-out: pTGI): 5.01 µM
GI50 (SF-268; SF-268, read-out: pGI50 (converted)): 0.224 µM
CC50 (SF-268; SF-268, read-out: pLC50 (converted)): 33.1 µM
TGI (SF-268; SF-268, read-out: pTGI): 1.58 µM
GI50 (HT-29; HT-29, read-out: pGI50 (converted)): 0.251 µM
CC50 (HT-29; HT-29, read-out: pLC50 (converted)): > 100 µM
TGI (HT-29; HT-29, read-out: pTGI): 1.91 µM
GI50 (HCT-15; HCT-15, read-out: pGI50 (converted)): 11.5 µM
CC50 (HCT-15; HCT-15, read-out: pLC50 (converted)): > 100 µM
TGI (HCT-15; HCT-15, read-out: pTGI): 49 µM
GI50 (HCT-116; HCT-116, read-out: pGI50 (converted)): 0.331 µM
CC50 (HCT-116; HCT-116, read-out: pLC50 (converted)): > 100 µM
TGI (HCT-116; HCT-116, read-out: pTGI): 3.8 µM
GI50 (HCC 2998; HCC 2998, read-out: pGI50 (converted)): 0.269 µM
CC50 (HCC 2998; HCC 2998, read-out: pLC50 (converted)): 3.63 µM
TGI (HCC 2998; HCC 2998, read-out: pTGI): 0.759 µM
GI50 (NCI-H460; NCI-H460, read-out: pGI50 (converted)): 0.0912 µM
CC50 (NCI-H460; NCI-H460, read-out: pLC50 (converted)): 52.5 µM
TGI (NCI-H460; NCI-H460, read-out: pTGI): 1.29 µM
GI50 (NCI-H23; NCI-H23, read-out: pGI50 (converted)): 0.191 µM
CC50 (NCI-H23; NCI-H23, read-out: pLC50 (converted)): 3.47 µM
TGI (NCI-H23; NCI-H23, read-out: pTGI): 0.724 µM
GI50 (NCI-H226; NCI-H226, read-out: pGI50 (converted)): 0.166 µM
CC50 (NCI-H226; NCI-H226, read-out: pLC50 (converted)): > 100 µM
TGI (NCI-H226; NCI-H226, read-out: pTGI): 0.676 µM
GI50 (HOP-92; HOP-92, read-out: pGI50 (converted)): 0.263 µM
CC50 (HOP-92; HOP-92, read-out: pLC50 (converted)): > 100 µM
TGI (HOP-92; HOP-92, read-out: pTGI): 0.955 µM
GI50 (HOP-62; HOP-62, read-out: pGI50 (converted)): 1.1 µM
CC50 (HOP-62; HOP-62, read-out: pLC50 (converted)): 61.7 µM
TGI (HOP-62; HOP-62, read-out: pTGI): 4.47 µM
GI50 (A549; A549, read-out: pGI50 (converted)): 0.0525 µM
CC50 (A549; A549, read-out: pLC50 (converted)): > 100 µM
TGI (A549; A549, read-out: pTGI): 15.5 µM
GI50 (cells; RPMI8266, read-out: pGI50 (converted)): 0.288 µM
CC50 (cells; RPMI8266, read-out: pLC50 (converted)): > 100 µM
TGI (cells; RPMI8266, read-out: pTGI): 1.66 µM
CC50 (K562; K562, read-out: pLC50 (converted)): > 100 µM
TGI (K562; K562, read-out: pTGI): > 100 µM
GI50 (T47D; read-out: pGI50 (converted)): 0.129 µM
CC50 (T47D; read-out: pLC50 (converted)): 25.7 µM
TGI (T47D; read-out: pTGI): 0.776 µM
GI50 (MDA-MB-435; MDA-MB-435, read-out: pGI50 (converted)): 0.631 µM
CC50 (MDA-MB-435; MDA-MB-435, read-out: pLC50 (converted)): 5.62 µM
TGI (MDA-MB-435; MDA-MB-435, read-out: pTGI): 2.09 µM
GI50 (MDA-MB-231; MDA-MB-231, read-out: pGI50 (converted)): > 100 µM
CC50 (MDA-MB-231; MDA-MB-231, read-out: pLC50 (converted)): 100 µM
TGI (MDA-MB-231; MDA-MB-231, read-out: pTGI): > 100 µM
GI50 (NCI/ADR-RES; read-out: pGI50 (converted)): 69.2 µM
CC50 (NCI/ADR-RES; read-out: pLC50 (converted)): > 100 µM
TGI (NCI/ADR-RES; read-out: pTGI): > 100 µM
GI50 (MCF7; MCF7, read-out: pGI50 (converted)): 0.224 µM
CC50 (MCF7; MCF7, read-out: pLC50 (converted)): > 36.3 µM
TGI (MCF7; MCF7, read-out: pTGI): 0.794 µM
GI50 (UO-31; UO-31, read-out: pGI50 (converted)): 2.4 µM
CC50 (UO-31; UO-31, read-out: pLC50 (converted)): > 100 µM
TGI (UO-31; UO-31, read-out: pTGI): 25.7 µM
GI50 (A498; A498, read-out: pGI50 (converted)): 0.468 µM
CC50 (A498; A498, read-out: pLC50 (converted)): < 7.59 µM
TGI (A498; A498, read-out: pTGI): 2.04 µM
